Test results from PMC7948494, “Structure of an ancestral ADP-dependent kinase with fructose-6P reveals key residues for binding, catalysis, and ligand-induced conformational changes” (The Journal of Biological Chemistry, 2020).
Changes are numbered by the printed parent chain.

Tests used:
[1] = target: T1, AncMsPFK (synthetic construct, UniProt Z9Y5W3ZEF0); assay: coupled NADH oxidation assay, […] nm; assay type: biochemical; conditions: 1 mM ADP, 2 mM MgCl2, 100 mM Pipes pH 6.5, 25 °C
T1 construct: synthetic gene in pET-15, N-terminal polyhistidine tag, E. coli BL21; heat step and Ni-Sepharose; 490 residues expected, one molecule per asymmetric unit
T1 sequence (Z9Y5W3ZEF0 22-511): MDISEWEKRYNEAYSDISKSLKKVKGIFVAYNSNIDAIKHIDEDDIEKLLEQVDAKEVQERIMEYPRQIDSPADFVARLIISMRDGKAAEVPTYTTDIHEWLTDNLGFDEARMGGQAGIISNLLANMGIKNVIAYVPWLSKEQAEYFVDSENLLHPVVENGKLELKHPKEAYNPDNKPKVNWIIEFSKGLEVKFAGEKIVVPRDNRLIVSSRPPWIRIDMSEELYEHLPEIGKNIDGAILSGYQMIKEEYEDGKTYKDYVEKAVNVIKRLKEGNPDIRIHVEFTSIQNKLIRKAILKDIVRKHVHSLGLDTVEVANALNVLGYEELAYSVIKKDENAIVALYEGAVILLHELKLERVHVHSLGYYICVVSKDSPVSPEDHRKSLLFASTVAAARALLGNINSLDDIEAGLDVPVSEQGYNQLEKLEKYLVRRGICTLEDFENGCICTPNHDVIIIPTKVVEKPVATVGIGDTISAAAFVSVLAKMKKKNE

[2] = target: T1, AncMsPFK; assay: X-ray crystallography, […] Å; assay type: binding; conditions: closed conformation
[3] = target: T2, AncMsPFK (synthetic construct, UniProt Z9Y5W3ZEF0, E111A); assay: coupled NADH oxidation assay, […] nm; assay type: biochemical; conditions: 1 mM ADP, 2 mM MgCl2, 100 mM Pipes pH 6.5, 25 °C; substrate inhibition fit
T2 construct: synthetic gene in pET-15, N-terminal polyhistidine tag, E. coli BL21; heat step and Ni-Sepharose; 490 residues expected, one molecule per asymmetric unit
T2 sequence (Z9Y5W3ZEF0 22-511 E111A): T1 sequence (Z9Y5W3ZEF0 22-511) with E90A

Compound | F6P / KM mM [1] | X-ray crystallography, 3.12 Å ([2]; ternary complex with Mg-ADPβS, active site) | F6P / KM mM [3] | X-ray crystallography, 3.12 Å ([2]; ternary complex with F6P and Mg2+, nucleotide site)
O=P(O)(O)OC[C@H]1OC(O)(CO)[C@@H](O)[C@@H]1O (stereo partly shown) [F6P] | 0.014 ± 1.5 × 10^−3 mM | The structure of the AncMsPFK in complex with F6P-Mg-ADPβS was solved by molecular replacement | 0.09 ± 9.6 × 10^−3 mM | –
Nc1ncnc2c1ncn2[C@@H]1O[C@H](COP(=O)(O)OP(=O)(O)S)[C@@H](O)[C@H]1O (stereo partly shown) [ADPβS] | – | – | – | The structure of the AncMsPFK in complex with F6P-Mg-ADPβS was solved by molecular replacement
